Read-outs that look alike come from different tables or passages of the source.
Assays:
[1] = target: T1, human recombinant adrenergic α2A receptor (Homo sapiens, UniProt P08913); assay: Radioligand binding, adrenergic α2A ([3H]MK-912); settings: for inhibition at 0.1 µM / Percentage inhibition of ligand binding, Adrenergic α2A (0.1 μM) / inhibition at 0.03 µM / Percentage inhibition of ligand binding, Adrenergic α2A: [3H]MK-912; for Percentage inhibition of ligand binding, Adrenergic α2A (0.1 μM) / Percentage inhibition of ligand binding, Adrenergic α2A: 0.1 µM
T1 construct: expressed in transfected cells; host or cells: insect Sf9 cells
T1 sequence (P08913 1-465): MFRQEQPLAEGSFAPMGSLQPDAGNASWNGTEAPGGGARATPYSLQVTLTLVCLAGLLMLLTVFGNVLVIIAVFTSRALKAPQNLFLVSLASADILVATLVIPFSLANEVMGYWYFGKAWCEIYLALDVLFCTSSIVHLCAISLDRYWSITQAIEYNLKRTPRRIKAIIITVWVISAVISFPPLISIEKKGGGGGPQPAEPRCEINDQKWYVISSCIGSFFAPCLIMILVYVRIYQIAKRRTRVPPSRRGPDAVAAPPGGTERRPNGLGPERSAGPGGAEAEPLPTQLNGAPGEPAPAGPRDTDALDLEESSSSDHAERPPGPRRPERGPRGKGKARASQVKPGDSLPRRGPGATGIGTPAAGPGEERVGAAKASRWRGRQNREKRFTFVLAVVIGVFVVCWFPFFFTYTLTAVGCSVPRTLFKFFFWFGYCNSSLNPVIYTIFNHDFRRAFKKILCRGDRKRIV
Procedure, shortened: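 Sf9-expressed receptor was incubated with compound for 60 min at 25 °C in modified Tris-HCl buffer, pH 7.4. Nonspecific binding was taken as that remaining with 10 μM WB-4101.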

[2] = target: T2, human recombinant adrenergic α2B receptor (Homo sapiens, UniProt P18089); assay: Radioligand binding, adrenergic α2B ([3H]Rauwolscine); settings: for inhibition at 0.03 µM / inhibition at 0.1 µM / Percentage inhibition of ligand binding, Adrenergic α2B (0.1 μM) / Percentage inhibition of ligand binding, Adrenergic α2B: [3H]Rauwolscine; for Ki: read-out: Ki α2B
T2 construct: expressed in transfected cells; host or cells: CHO-K1
T2 sequence (P18089 1-450): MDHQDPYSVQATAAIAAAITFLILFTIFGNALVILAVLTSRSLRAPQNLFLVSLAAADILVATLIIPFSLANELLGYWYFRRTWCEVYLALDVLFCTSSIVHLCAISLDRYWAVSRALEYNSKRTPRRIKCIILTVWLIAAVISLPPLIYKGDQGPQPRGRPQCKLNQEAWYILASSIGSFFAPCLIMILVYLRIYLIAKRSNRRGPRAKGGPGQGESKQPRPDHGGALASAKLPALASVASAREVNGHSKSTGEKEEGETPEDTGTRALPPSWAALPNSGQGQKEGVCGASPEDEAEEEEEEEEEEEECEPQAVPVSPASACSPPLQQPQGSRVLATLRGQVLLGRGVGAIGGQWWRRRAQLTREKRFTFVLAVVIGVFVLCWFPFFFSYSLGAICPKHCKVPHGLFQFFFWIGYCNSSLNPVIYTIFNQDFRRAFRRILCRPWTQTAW
Procedure, shortened: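 Assay used CHO-K1-expressed human α2B receptor in Tris-HCl pH 7.4 buffer with MgCl2, EDTA and BSA; 60 min incubation at 25 °C.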

[3] = target: T3, human recombinant adrenergic α1D receptor (Homo sapiens, UniProt P25100); assay: Radioligand binding, adrenergic α1D ([3H]Prazosin); settings: [3H]Prazosin
T3 construct: expressed in transfected cells; host or cells: HEK-293
T3 sequence (P25100 1-572): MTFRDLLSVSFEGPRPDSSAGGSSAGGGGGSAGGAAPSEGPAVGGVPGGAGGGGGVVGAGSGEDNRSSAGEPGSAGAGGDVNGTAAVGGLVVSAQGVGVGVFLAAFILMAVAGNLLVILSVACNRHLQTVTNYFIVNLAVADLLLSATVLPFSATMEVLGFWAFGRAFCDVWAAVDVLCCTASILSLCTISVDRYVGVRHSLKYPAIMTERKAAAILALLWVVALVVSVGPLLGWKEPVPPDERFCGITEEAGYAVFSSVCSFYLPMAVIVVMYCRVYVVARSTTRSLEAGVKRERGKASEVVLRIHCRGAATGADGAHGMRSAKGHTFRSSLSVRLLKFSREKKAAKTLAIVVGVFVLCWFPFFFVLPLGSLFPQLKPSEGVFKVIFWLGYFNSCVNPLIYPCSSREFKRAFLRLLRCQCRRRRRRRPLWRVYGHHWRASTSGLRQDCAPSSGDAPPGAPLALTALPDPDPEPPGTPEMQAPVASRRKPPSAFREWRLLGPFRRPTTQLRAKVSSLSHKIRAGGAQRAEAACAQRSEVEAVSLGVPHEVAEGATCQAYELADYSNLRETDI
Description: Compounds were incubated with 0.6 nM [3H]Prazosin for 60 min at 25° C. Non-specific binding was estimated in the presence of 10 μM phentolamine. Receptor proteins were filtered and washed, the filters were then counted to determine [3H]Prazosin specifically bound. […] Biochemical assay results are presented as the percent inhibition of specific binding in Table B1.

[4] = read-out: Percentage inhibition of ligand binding, Adrenergic α2A (0.1 μM), compound at 0.1 μM, repeat datapoints each shown
[5] = read-out: Percentage inhibition of ligand binding, Adrenergic α2B (0.03 μM), compound at 0.03 μM, repeat datapoints each shown
[6] = read-out: Percentage inhibition of ligand binding, Adrenergic α2B (0.1 μM), compound at 0.1 μM, repeat datapoints each shown
[7] = read-out: Percentage inhibition of ligand binding, Adrenergic α1D (0.1 μM), compound at 0.1 μM, repeat datapoints each shown
[8] = compound at 0.1 μM, repeat datapoints each shown
[9] = read-out: Percentage inhibition of ligand binding, Adrenergic α2A (0.03 μM), compound at 0.03 μM, repeat datapoints each shown
[10] = compound at 0.1 μM, repeat datapoints each shown, 0.1 µM
[11] = compound at 0.03 μM, repeat assays, each datapoint shown, read-out: Percentage inhibition of ligand binding, Adrenergic α2B
[12] = compound at 0.1 μM, repeat assays, each datapoint shown, 0.1 µM
[13] = compound at 0.1 μM, repeat assays, each datapoint shown, read-out: Percentage inhibition of ligand binding, Adrenergic α2B
[14] = compound at 0.1 μM, repeat assays, each datapoint shown, read-out: Percentage inhibition of ligand binding, Adrenergic α1D
[15] = compound at 0.1 μM, repeat assays, each datapoint shown
[16] = compound at 0.1 μM, repeat assays, each datapoint shown, read-out: Percentage inhibition of ligand binding, Adrenergic α2A
[17] = compound at 0.03 μM, repeat assays, each datapoint shown, read-out: Percentage inhibition of ligand binding, Adrenergic α1D

Structure (SMILES)	inhibition at 0.1 µM [1, 4]	inhibition at 0.03 µM [2, 5]	inhibition at 0.1 µM [2, 6]	inhibition at 0.1 µM [3, 7]	Ki [1]	Percentage inhibition of ligand binding, Adrenergic α2A (0.1 μM) [1, 8]	Percentage inhibition of ligand binding, Adrenergic α2B (0.1 μM) [2, 10]	Ki [2]	inhibition at 0.03 µM [2, 11]	inhibition at 0.1 µM [2, 13]	inhibition at 0.1 µM [3, 14]	also measured
CCN1CCc2c(c3cc(C)ccc3n2CCc2ccc(C)cc2)C1 [compound 202]	92%	7%	22%	52%	–	–	–	–	–	–	–	–
Cc1ccc2c(c1)c1c(n2CNc2ccccn2)CCN(C)C1 [compound 120, (2,8-dimethyl-1,2,3,4-tetrahydro-pyrido[4,3-b]indol-5-ylmethyl)-pyridin-2-yl-amine]	45%	39%	55%	14%	65.8 nM	48%	70%	20.5 nM	–	–	–	inhibition at 0.03 µM [1, 9]: 25%; Percentage inhibition of ligand binding, Adrenergic α1D (0.1 μM) [3, 8]: 26%; inhibition at 0.03 µM ([3]; read-out: Percentage inhibition of ligand binding, Adrenergic α1D (0.03 μM), compound at 0.03 μM, repeat datapoints each shown): 3%
Cc1ccc2c(c1)c1c(n2CC(O)c2ccncc2)CCN(C)C1 (stereo not shown) [compound 3]	–	–	–	–	0.26 nM	–	–	0.64 nM	99%	100%	12%	inhibition at 0.03 µM ([1]; compound at 0.03 μM, repeat assays, each datapoint shown, read-out: Percentage inhibition of ligand binding, Adrenergic α2A): 4%; Percentage inhibition of ligand binding, Adrenergic α2B [2, 12]: 103%
Cc1ccc(C(O)Cn2c3c(c4cc(C)ccc42)CN(C)CC3)cc1 (racemic) [compound 183, racemic-2-(1,2,3,4-tetrahydro-2,8-dimethylpyrido[4,3-b]indol-5-yl)-1-p-tolylethanol]	93%	68%	80%	36%	–	–	–	–	–	–	–	–
Cc1ccc2c(c1)c1c(n2CC(C)(O)c2ccc(O)cc2)CCN(C)C1 (stereo not shown) [compound 98]	26%	–	96%	31%	–	32%	103%	–	–	–	–	Percentage inhibition of ligand binding, Adrenergic α1D (0.1 μM) [3, 8]: 35%
Cc1ccc2c(c1)c1c(n2C2=C(c3ccc(C)s3)CCC2)CCN(C)C1 [compound 190, 2,8-dimethyl-5-(2-(5-methylthiophen-2-yl)cyclopent-1-enyl)-2,3,4,5-tetrahydro-1H-pyrido[4,3-b]indole]	70%	88%	84%	31%	12.8 nM	89%	99%	2.26 nM	–	–	–	inhibition at 0.03 µM [1, 9]: 49%
Cc1cnc2c(c1)c1c(n2CCc2ccc(C)nc2)CCN2CCCC12 (single isomer, unassigned) [74a, 10-methyl-7-(2-(6-methylpyridin-3-yl)ethyl)-2,3,5,6,7,11c-hexahydro-1H-pyrido[3′,2′:4,5]pyrrolo[2,3-g]indolizine]	–	–	–	–	234 nM	–	–	1.42 nM	93%	101%	61%	Percentage inhibition of ligand binding, Adrenergic α2A [1, 15]: 27%; inhibition at 0.1 µM [1, 16]: 22%; inhibition at 0.03 µM [3, 17]: 42%
C/C(=C\n1c2c(c3cc(C)ccc31)CN(C)CC2)c1ccncn1 [compound 101]	14%	–	63%	45%	–	15%	76%	–	–	–	–	Percentage inhibition of ligand binding, Adrenergic α1D (0.1 μM) [3, 8]: 48%
Cc1ccc2c(c1)c1c(n2CC2(c3ccccc3)OCCO2)CCN(C)C1 [compound 83]	–	–	–	–	–	–	–	–	63%	78%	13%	Percentage inhibition of ligand binding, Adrenergic α2A [1, 15]: 29%; inhibition at 0.1 µM [1, 16]: 21%
Cc1ccc2c(c1)c1c(n2CCc2cccnc2)CCN(C)C1 [compound 61]	–	–	–	–	–	–	–	5.89 nM	65%	85%	37%	inhibition at 0.1 µM [1, 16]: 30%; Percentage inhibition of ligand binding, Adrenergic α2B ([2]; compound at 0.03 μM, repeat assays, each datapoint shown, 0.03 µM): 80%; Percentage inhibition of ligand binding, Adrenergic α2B [2, 12]: 94%; inhibition at 0.03 µM [3, 17]: 14%
Cc1ccc(CCn2c3c(c4ccccc42)CN(C)CC3)cc1 [compound 181, 2,3,4,5-Tetrahydro-2-methyl-5-(4-methylphenethyl)-1H-pyrido[4,3-b]indole]	89%	70%	92%	32%	–	–	–	–	–	–	–	–
Cc1ccc(CCn2c3c(c4cc(C)ccc42)CN(C)CC3)cc1 [compound 180, 2,3,4,5-tetrahydro-2,8-dimethyl-5-(4-methylphenethyl)-1H-pyrido[4,3-b]indole]	95%	91%	99%	74%	–	–	–	–	–	–	–	–

From patent US8791132B2, “Compounds and methods for treatment of hypertension” (Medivation Technologies, Inc., priority 2011, dated 2014)
